Reference: US4288439A, “Anti-ulcer treatment method” (priority 1978, dated 1981)

Key:
[1] = stress-induced erosion test (Senay & Levine), anti-ulcer activity; format: in vivo; conditions: Dose 100 mg/kg
Procedure: (§1) Anti-ulcer activity was determined by the stress-induced erosion test of Senay & Levine, Proc. Soc. Exp. Biol. Med., 124, 1221-3(1967) and anti-secretory activity by the test of H. Shay, D. Sun and H. Greenstein, Gastroenterology, 1954, 26,903-13 as exemplified by Beattie et al in J. Med Chem, 20,714 (1977).

[2] = anti-secretory activity test (Shay et al); format: in vivo
Procedure: as §1

SMILES: C[n+]1ccccc1SCSc1cccc[n+]1C [Example 1, Methylene bis((1-methylpyridinium-2-yl)-thio) diiodide]
- Stress Induced erosion (Senay & Levine) % inhibition [1]: 71%
- Anti-Secretory (Shay et al) % change in volt ([2]; Dose 10 mg/kg): -32%
- Anti-Secretory (Shay et al) % change in volt ([2]; Dose 30 mg/kg): -62%

SMILES: C[n+]1ccccc1SCCSc1cccc[n+]1C [Example 2, 1,2-Di-((1-methylpyridinium-2-yl)thio)ethane dibromide]
- Stress Induced erosion (Senay & Levine) % inhibition [1]: 67%
- Anti-Secretory (Shay et al) % change in volt ([2]; Dose 30 mg/kg): -48%
